US20250059198A1, “BRM DEGRADING COMPOUNDS AND ASSOCIATED METHODS OF USE” (Arvinas Operations, Inc., priority 2021, published 2025)

Biological target: T1, BRM (Homo sapiens, UniProt P51531)
T1 construct: Western Blot Screen of BRM Degradation in SW1573 Cells; endogenous in cells; host or cells: SW1573 cells
Assay: BRM degradation (Dmax and DC50) in SW1573 cells, Western blot screen / In-Cell Western screen
Type: cell-based
Conditions: overnight (18-20 hours) treatment; for Dmax: read-out: Dmax (%)** (% degraded)
Procedure, shortened: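 SW1573 cells were treated with compound for 18–20 h (final 0.1% DMSO). BRM was quantified either by Western blot of RIPA lysates or by fixed-cell In-Cell Western (LI-COR, 800/680 nm), each normalised to alpha-tubulin, giving Dmax and DC50.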

T1 sequence (P51531 whole entry): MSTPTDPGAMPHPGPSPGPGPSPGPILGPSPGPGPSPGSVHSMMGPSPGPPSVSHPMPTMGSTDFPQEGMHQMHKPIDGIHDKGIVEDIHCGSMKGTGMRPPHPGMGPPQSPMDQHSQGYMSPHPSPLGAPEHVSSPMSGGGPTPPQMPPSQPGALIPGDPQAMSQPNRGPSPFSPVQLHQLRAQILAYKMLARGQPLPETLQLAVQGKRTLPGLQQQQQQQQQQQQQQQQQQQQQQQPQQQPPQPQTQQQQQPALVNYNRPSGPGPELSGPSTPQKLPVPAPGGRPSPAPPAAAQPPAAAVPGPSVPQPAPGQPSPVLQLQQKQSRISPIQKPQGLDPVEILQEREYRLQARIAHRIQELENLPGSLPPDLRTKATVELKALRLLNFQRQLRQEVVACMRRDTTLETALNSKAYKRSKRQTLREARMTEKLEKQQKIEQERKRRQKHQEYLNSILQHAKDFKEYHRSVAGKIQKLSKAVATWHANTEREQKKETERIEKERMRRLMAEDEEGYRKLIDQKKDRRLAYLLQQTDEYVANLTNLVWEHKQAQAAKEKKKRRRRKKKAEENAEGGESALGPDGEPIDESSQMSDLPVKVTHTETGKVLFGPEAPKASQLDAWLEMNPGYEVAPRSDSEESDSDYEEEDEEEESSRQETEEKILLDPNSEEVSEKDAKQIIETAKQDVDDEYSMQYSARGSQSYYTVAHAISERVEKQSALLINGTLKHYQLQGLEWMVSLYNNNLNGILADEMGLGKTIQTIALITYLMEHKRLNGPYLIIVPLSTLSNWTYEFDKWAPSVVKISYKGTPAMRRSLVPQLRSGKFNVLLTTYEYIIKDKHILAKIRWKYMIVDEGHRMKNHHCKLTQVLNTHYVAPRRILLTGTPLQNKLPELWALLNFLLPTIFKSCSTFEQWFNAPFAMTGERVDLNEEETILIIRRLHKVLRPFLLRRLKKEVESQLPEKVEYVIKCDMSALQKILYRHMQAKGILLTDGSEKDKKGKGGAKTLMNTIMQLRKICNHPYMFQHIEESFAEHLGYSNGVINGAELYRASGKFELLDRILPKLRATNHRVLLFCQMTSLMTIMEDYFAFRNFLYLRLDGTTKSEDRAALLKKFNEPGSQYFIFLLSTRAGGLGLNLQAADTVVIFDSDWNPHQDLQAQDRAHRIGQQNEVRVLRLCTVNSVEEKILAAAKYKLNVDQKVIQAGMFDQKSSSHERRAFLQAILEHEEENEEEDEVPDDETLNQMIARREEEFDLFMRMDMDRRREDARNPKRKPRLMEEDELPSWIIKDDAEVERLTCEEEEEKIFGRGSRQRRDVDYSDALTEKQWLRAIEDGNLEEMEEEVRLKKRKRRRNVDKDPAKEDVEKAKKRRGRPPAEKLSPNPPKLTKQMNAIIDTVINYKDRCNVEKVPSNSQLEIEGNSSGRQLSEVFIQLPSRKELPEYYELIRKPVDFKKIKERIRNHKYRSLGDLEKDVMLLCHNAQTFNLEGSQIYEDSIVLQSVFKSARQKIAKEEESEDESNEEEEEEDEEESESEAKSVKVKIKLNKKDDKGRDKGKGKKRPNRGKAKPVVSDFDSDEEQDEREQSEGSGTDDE

SMILES	DC50 [nM]	Dmax [%]
Cc1ncsc1-c1ccc([C@H](C)NC(=O)[C@@H]2C[C@@H](O)CN2C(=O)[C@@H](c2cc(N3CCC(OC4CCN(C[C@H]5C[C@@H](N6CCO[C@@H](CN7C8CCC7CN(c7cc(-c9ccccc9O)nnc7N)C8)C6)C5)CC4)CC3)no2)C(C)C)cc1 [Compound 108, (2S,4R)-1-((2R)-2-(3-(4-((1-(((1S,3s)-3-((2R)-2-((3-(3-amino-6-(2-hydroxyphenyl)pyridazin-4-yl)-3,8-diazabicyclo[3.2.1]octan-8-yl)methyl)morpholino)cyclobutyl)methyl)piperidin-4-yl)oxy)piperidin-1-yl)isoxazol-5-yl)-3-methylbutanoyl)-4-hydroxy-N-((S)-1-(4-(4-methylthiazol-5-yl)phenyl)ethyl)pyrrolidine-2-carboxamide]	< 2.5	> 75
Cc1ncsc1-c1ccc([C@H](C)NC(=O)[C@@H]2C[C@@H](O)CN2C(=O)[C@@H](c2cc(OCCN3CCN(CCOc4cc(N5C6CCC5CN(c5cc(-c7ncccc7O)nnc5N)C6)ccn4)[C@H](C)C3)no2)C(C)C)cc1 [Compound 149, (2S,4R)-1-[(2R)-2-(3-{2-[(3R)-4-{2-[(4-{3-[3-amino-6-(3-hydroxypyridin-2-yl)pyridazin-4-yl]-3,8-diazabicyclo[3.2.1]octan-8-yl}pyridin-2-yl)oxy]ethyl}-3-methylpiperazin-1-yl]ethoxy}-1,2-oxazol-5-yl)-3-methylbutanoyl]-4-hydroxy-N-[(1S)-1-[4-(4-methyl-1,3-thiazol-5-yl)phenyl]ethyl]pyrrolidine-2-carboxamide]	≥ 30	–
Cc1ncsc1-c1ccc([C@H](C)NC(=O)[C@@H]2C[C@@H](O)CN2C(=O)[C@@H](c2cc(N3CCC(CN4CCC5(CC4)CC(N4CCO[C@@H](C#CC(C)n6cc(-c7cc(-c8ccccc8O)nnc7N)cn6)C4)C5)CC3)no2)C(C)C)cc1 (stereo partly drawn) [Compound 121, (2S,4R)-1-[(2R)-2-{3-[4-({2-[(2S)-2-(3-{4-[3-amino-6-(2-hydroxyphenyl)pyridazin-4-yl]-1H-pyrazol-1-yl}but-1-yn-1-yl)morpholin-4-yl]-7-azaspiro[3.5]nonan-7-yl}methyl)piperidin-1-yl]-1,2-oxazol-5-yl}-3-methylbutanoyl]-4-hydroxy-N-[(1S)-1-[4-(4-methyl-1,3-thiazol-5-yl)phenyl]ethyl]pyrrolidine-2-carboxamide]	< 2.5	> 75
Cc1ncsc1-c1ccc([C@H](C)NC(=O)[C@@H]2C[C@@H](O)CN2C(=O)[C@@H](c2cc(N3CCC(CN4CCC5(CC4)CC(N4CCO[C@H]([C@H](C)n6cc(C#Cc7cc(-c8ccccc8O)nnc7N)cn6)C4)C5)CC3)no2)C(C)C)cc1 [Compound 96, (2S,4R)-1-[(2R)-2-{3-[4-({2-[(2S)-2-[(1S)-1-(4-{2-[3-amino-6-(2-hydroxyphenyl)pyridazin-4-yl]ethynyl}-1H-pyrazol-1-yl)ethyl]morpholin-4-yl]-7-azaspiro[3.5]nonan-7-yl}methyl)piperidin-1-yl]-1,2-oxazol-5-yl}-3-methylbutanoyl]-4-hydroxy-N-[(1S)-1-[4-(4-methyl-1,3-thiazol-5-yl)phenyl]ethyl]pyrrolidine-2-carboxamide]	< 2.5	> 75
CC(C)[C@@H](C(=O)N1C[C@H](O)C[C@H]1C(=O)N[C@@H](C)c1ccc(Cl)cc1)c1cc(N2CCC(CN3CCC(O[C@H]4C[C@H](Oc5cc(N6C7CCC6CN(c6cc(-c8ccccc8O)nnc6N)C7)ccn5)C4)CC3)CC2)no1 (relative stereo) [Compound 48, (2S,4R)-N-[(1S)-1-(4-chlorophenyl)ethyl]-4-hydroxy-1-[(2R*)-3-methyl-2-{3-[4-({4-[(1rs,3rs)-3-[(4-{3-[3-amino-6-(2-hydroxyphenyl)pyridazin-4-yl]-3,8-diazabicyclo[3.2.1]octan-8-yl}pyridin-2-yl)oxy]cyclobutoxy]piperidin-1-yl}methyl)piperidin-1-yl]-1,2-oxazol-5-yl}butanoyl]pyrrolidine-2-carboxamide]	10 to 30	> 75
Cc1ncsc1-c1ccc([C@H](C)NC(=O)[C@@H]2C[C@@H](O)CN2C(=O)[C@@H](c2cc(N3CCC(CN4CCC(OC(=O)N5CCN(c6cc(-c7ccccc7O)nnc6N)CC5)CC4)CC3)no2)C(C)C)cc1 [Compound 65, 1-[(1-{5-[(2R)-1-[(2S,4R)-4-hydroxy-2-{[(1S)-1-[4-(4-methyl-1,3-thiazol-5-yl)phenyl]ethyl]carbamoyl}pyrrolidin-1-yl]-3-methyl-1-oxobutan-2-yl]-1,2-oxazol-3-yl}piperidin-4-yl)methyl]piperidin-4-yl 4-[3-amino-6-(2-hydroxyphenyl)pyridazin-4-yl]piperazine-1-carboxylate]	< 2.5	> 75
Cc1ncsc1-c1ccc([C@H](C)NC(=O)[C@@H]2C[C@@H](O)CN2C(=O)[C@@H](c2cc(N3CCC(CN4CCC(O[C@H]5C[C@H](N6CCC(C#N)(CN7C8CCC7CN(c7cc(-c9ccccc9O)nnc7N)C8)CC6)C5)CC4)CC3)no2)C(C)C)cc1 [Compound 20, (2S,4R)-4-hydroxy-N-[(1S)-1-[4-(4-methyl-1,3-thiazol-5-yl)phenyl]ethyl]-1-[(2R)-3-methyl-2-{3-[4-({4-[(1r,3r)-3-[4-({3-[3-amino-6-(2-hydroxyphenyl)pyridazin-4-yl]-3,8-diazabicyclo[3.2.1]octan-8-yl}methyl)-4-cyanopiperidin-1-yl]cyclobutoxy]piperidin-1-yl}methyl)piperidin-1-yl]-1,2-oxazol-5-yl}butanoyl]pyrrolidine-2-carboxamide]	< 2.5	> 75
Cc1ncsc1-c1ccc([C@H](C)NC(=O)[C@@H]2C[C@@H](O)CN2C(=O)[C@H](c2cc(N3C4CCC3CC(CN3CCC(O[C@H]5C[C@H](Oc6cc(N7C8CCC7CN(c7cc(-c9ccccc9O)nnc7N)C8)ccn6)C5)CC3)C4)no2)C(C)C)cc1 (stereo partly drawn) [Compound 18, (2S,4R)-4-hydroxy-N-[(1S)-1-[4-(4-methyl-1,3-thiazol-5-yl)phenyl]ethyl]-1-[(2S)-3-methyl-2-{3-[3-({4-[(1r*,3r*)-3-[(4-{3-[3-amino-6-(2-hydroxyphenyl)pyridazin-4-yl]-3,8-diazabicyclo[3.2.1]octan-8-yl}pyridin-2-yl)oxy]cyclobutoxy]piperidin-1-yl}methyl)-8-azabicyclo[3.2.1]octan-8-yl]-1,2-oxazol-5-yl}butanoyl]pyrrolidine-2-carboxamide]	≥ 30	–
Cc1ncsc1-c1ccc([C@H](C)NC(=O)[C@@H]2C[C@@H](O)CN2C(=O)[C@@H](c2cc(N3CCC(OC(=O)N4CCC(O[C@H]5C[C@H](Oc6cc(N7C8CCC7CN(c7cc(-c9ccccc9O)nnc7N)C8)ccn6)C5)CC4)CC3)no2)C(C)C)cc1 [Compound 117, 1-{5-[(2R)-1-[(2S,4R)-4-hydroxy-2-{[(1S)-1-[4-(4-methyl-1,3-thiazol-5-yl)phenyl]ethyl]carbamoyl}pyrrolidin-1-yl]-3-methyl-1-oxobutan-2-yl]-1,2-oxazol-3-yl}piperidin-4-yl 4-[(1r,3r)-3-[(4-{3-[3-amino-6-(2-hydroxyphenyl)pyridazin-4-yl]-3,8-diazabicyclo[3.2.1]octan-8-yl}pyridin-2-yl)oxy]cyclobutoxy]piperidine-1-carboxylate]	< 2.5	> 75
